Molecules are shown by their SMILES.

Common to all, as to parameters: key: Active: Compounds with an IC50 value less than 30 μM were deemed to be active.; Not Active: Compounds with an IC50 value less than 30 μM were deemed to be active
In test [1] the target is T1, Brd4 bromodomain 1 (BRD4(1)) (Homo sapiens, UniProt O60885).
T1 construct: Illustrative results with the first bromodomain of Brd4; made in house; host or cells: E. coli BL21 (DE3)
Nature of the test: Inhibition of tetra-acetylated histone H4 binding to Brd4 bromodomain 1 (TR-FRET). The following applies: tetra-acetylated histone H4 peptide, active = IC50 <30 μM. Summed up: (§1)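 N-terminally His-tagged bromodomains (200 nM), expressed in E. coli, were incubated with biotinylated tetra-acetylated histone H4 peptide (25-50 nM), Eu-cryptate streptavidin and XL665 anti-His antibody in HEPES pH 7.4 buffer with KF, 0.2% DMSO, 2 h at room temperature. Inhibition read as decreased 665/620 nm TR-FRET; IC50 from dose-response curves.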
A general note: TR-FRET usually uses a lanthanide donor and a delayed reading to cut background.

Test [2] deals with T2, second bromodomain of Brd2 (BRD2(2)) (Homo sapiens, UniProt P25440).
T2 construct: made in house; host or cells: E. coli BL21 (DE3)
T2 sequence (P25440 344-453 limits assumed): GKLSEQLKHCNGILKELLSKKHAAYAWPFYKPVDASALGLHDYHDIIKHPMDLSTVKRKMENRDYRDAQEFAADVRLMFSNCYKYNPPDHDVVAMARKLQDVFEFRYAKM
Nature of the test: Inhibition of tetra-acetylated histone H4 binding to Brd2 bromodomain 2 (TR-FRET). The note with it: tetra-acetylated histone H4 peptide, active = IC50 <30 μM. Summed up: as §1

A further test relates to c-myc. Nature of the test: Inhibition of c-myc expression in MV4-11 cells (mRNA, real-time PCR). The class given is cell-based. The note with it: Human AML MV4-11 cells, 3 h incubation. Summed up:
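MV4-11 cells (2.5×10^4) treated with compound or 0.1% DMSO for 3 h at 37 °C. c-myc mRNA measured by RT real-time PCR duplexed with cyclophilin. IC50 from dose–response curve.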
On the technique in general: Real-time PCR tracks product formation cycle by cycle.

In test [3] the test system is human AML MV-4-11 (CRL-9591) cells. Nature of the test: Inhibition of cell proliferation in MV4-11 cells. The class given is cell-based. The following applies: human AML MV-4-11 cells, 72 h; active = IC50 <30 μM. Put shortly: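 Exponentially growing MV-4-11 cells (5×10^4/well) were treated immediately with two-fold dilutions of compound from 30 μM to 0.2 μM, in triplicate, for 72 h at 37° C, 5% CO2. Viability was measured by MTS absorbance at 490 nm after 3–4 h. Proliferation relative to DMSO after blank correction gave IC50.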

The subject of a further test is hIL-6 mRNA. Nature of the test: Inhibition of hIL-6 mRNA transcription in U937 cells. The following applies: LPS stimulation, active = IC50 <30 μM. The class given is cell-based, human. Put shortly: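 U937 cells differentiated 3 days with 60 ng/mL PMA, pretreated 1 h with compound, then stimulated with 1 ug/mL E. coli LPS for 3 h at 37° C. hIL-6 mRNA quantified by one-step qRT-PCR, Ct normalized to internal control, expressed as fold induction relative to control.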

In the case of `Cc1noc(C)c1-c1ccc(=O)n(Cc2c(F)cccc2Cl)n1` [Example 96, 2-(2-Chloro-6-fluorobenzyl)-6-(3,5-dimethylisoxazol-4-yl)pyridazin-3(2H)-one], the “FRET activity (IC50 <30 μM) BRD4(1)” value in test [1] is “Active”. Besides, the “FRET activity (IC50 <30 μM) BRD2(2)” value in test [2] is “Active”. Also, the “c-myc activity (IC50 <30 μM)” value in the test on c-myc is “Active”. Besides, in test [3], the “Cell Proliferation activity (IC50 <30 μM)” value (“Cell Proliferation activity” below) is recorded as “Active”. Besides, in the test on hIL-6 mRNA, the “IL-6 activity (IC50 <30 μM)” value was “Active”.
For `Cc1noc(N)c1-c1ccc(=O)n(Cc2ccccc2)c1` [Example 98, 5-(5-Amino-3-methylisoxazol-4-yl)-1-benzylpyridin-2(1H)-one trifluoroacetic acid], the “FRET activity (IC50 <30 μM) BRD4(1)” value in test [1] was “Active”. The “FRET activity (IC50 <30 μM) BRD2(2)” value in test [2] was “Active”. In the test with c-myc, the “c-myc activity (IC50 <30 μM)” value is “Not Active”. For the same compound, in test [3], the “Cell Proliferation activity” value is on record as “Active”. Moreover, the “IL-6 activity (IC50 <30 μM)” value in the test with hIL-6 mRNA was “Active”.
`Cc1noc(C)c1-c1ccc(=O)n(C(C)c2ccc(F)cc2)c1` (stereo not drawn) [Example 101, 5-(3,5-Dimethylisoxazol-4-yl)-1-(1-(4-fluorophenyl)ethyl)pyridin-2(1H)-one]: the “FRET activity (IC50 <30 μM) BRD4(1)” value in test [1] is on record as “Active”. Besides, in test [2], the “FRET activity (IC50 <30 μM) BRD2(2)” value is “Active”. Also, in the test with c-myc, the “c-myc activity (IC50 <30 μM)” value was “Active”. In addition, the “Cell Proliferation activity” value in test [3] is given as “Active”. In addition, the “IL-6 activity (IC50 <30 μM)” value with hIL-6 mRNA is given as “Active”.
With `Cc1noc(C)c1-c1ccc(=O)n(Cc2ccsc2)n1` [Example 107, 6-(3,5-Dimethylisoxazol-4-yl)-2-(thiophen-3-ylmethyl)pyridazin-3(2H)-one], in test [1], the “FRET activity (IC50 <30 μM) BRD4(1)” value is on record as “Active”. Further, in test [2], the “FRET activity (IC50 <30 μM) BRD2(2)” value is recorded as “Active”. For the same compound, the “c-myc activity (IC50 <30 μM)” value with c-myc was “Not Active”. The “Cell Proliferation activity” value in test [3] is reported as “Active”. Also, the “IL-6 activity (IC50 <30 μM)” value with hIL-6 mRNA is “Active”.
For the compound `Cc1noc(C)c1-c1ccc(=O)n(C(C)c2cccc(Cl)c2)c1` (stereo not drawn) [Example 113, 1-(1-(3-Chlorophenyl)ethyl)-5-(3,5-dimethylisoxazol-4-yl)pyridin-2(1H)-one], the “FRET activity (IC50 <30 μM) BRD4(1)” value in test [1] is listed as “Active”. Also, the “FRET activity (IC50 <30 μM) BRD2(2)” value in test [2] was “Active”. Besides, in the test with c-myc, the “c-myc activity (IC50 <30 μM)” value is given as “Active”. Further, the “Cell Proliferation activity” value in test [3] was “Active”. Moreover, in the test on hIL-6 mRNA, the “IL-6 activity (IC50 <30 μM)” value was “Active”.
For `COc1cc(-c2ccc(=O)n(Cc3ccc(C(C)(C)C)cc3)n2)cc(OC)c1OC` [Example 120, 2-(4-(tert-Butyl)benzyl)-6-(3,4,5-trimethoxyphenyl)pyridazin-3(2H)-one], in test [1], the “FRET activity (IC50 <30 μM) BRD4(1)” value is on record as “Active”. In addition, the “FRET activity (IC50 <30 μM) BRD2(2)” value in test [2] was “Active”. In addition, the “c-myc activity (IC50 <30 μM)” value in the test with c-myc was “Not Active”. Moreover, the “Cell Proliferation activity” value in test [3] was “Active”. In addition, the “IL-6 activity (IC50 <30 μM)” value in the test with hIL-6 mRNA was “Not Active”.
In the case of `Cc1cccc(Cn2cc(-c3c(C)noc3C)ccc2=O)c1` [Example 122, 5-(3,5-Dimethylisoxazol-4-yl)-1-(3-methylbenzyl)pyridin-2(1H)-one], the “FRET activity (IC50 <30 μM) BRD4(1)” value in test [1] is “Active”. Moreover, the “FRET activity (IC50 <30 μM) BRD2(2)” value in test [2] is “Active”. Besides, the “c-myc activity (IC50 <30 μM)” value in the test with c-myc is “Active”. Further, the “Cell Proliferation activity” value in test [3] is given as “Active”. For the same compound, the “IL-6 activity (IC50 <30 μM)” value with hIL-6 mRNA was “Active”.
On to `Cc1noc(C)c1-c1ccc(=O)n(Cc2ccccc2C(F)(F)F)c1` [Example 123, 5-(3,5-Dimethylisoxazol-4-yl)-1-(2-(trifluoromethyl)benzyl)pyridin-2(1H)-one], for which the “FRET activity (IC50 <30 μM) BRD4(1)” value in test [1] is on record as “Active”. Besides, in test [2], the “FRET activity (IC50 <30 μM) BRD2(2)” value is recorded as “Active”. Further, the “c-myc activity (IC50 <30 μM)” value with c-myc was “Active”. In test [3], the “Cell Proliferation activity” value is recorded as “Active”. In addition, the “IL-6 activity (IC50 <30 μM)” value in the test on hIL-6 mRNA is given as “Active”.
`Cc1noc(C)c1-c1ccc(=O)n(C(C)c2ccccc2F)c1` (stereo not drawn) [Example 124, 5-(3,5-Dimethylisoxazol-4-yl)-1-(1-(2-fluorophenyl)ethyl)pyridin-2(1H)-one]: the “FRET activity (IC50 <30 μM) BRD4(1)” value in test [1] is reported as “Active”. In test [2], the “FRET activity (IC50 <30 μM) BRD2(2)” value is given as “Active”. Besides, in the test with c-myc, the “c-myc activity (IC50 <30 μM)” value is recorded as “Active”. In addition, the “Cell Proliferation activity” value in test [3] is “Active”. The “IL-6 activity (IC50 <30 μM)” value with hIL-6 mRNA is listed as “Active”.
Turning to `Cc1noc(C)c1-c1ccc(=O)n(Cc2cccc(Cl)c2)c1` [Example 126, 1-(3-Chlorobenzyl)-5-(3,5-dimethylisoxazol-4-yl)pyridin-2(1H)-one], in test [1], the “FRET activity (IC50 <30 μM) BRD4(1)” value is reported as “Active”. For the same compound, the “FRET activity (IC50 <30 μM) BRD2(2)” value in test [2] is on record as “Active”. In the test on c-myc, the “c-myc activity (IC50 <30 μM)” value is listed as “Active”. For the same compound, in test [3], the “Cell Proliferation activity” value was “Active”. In addition, the “IL-6 activity (IC50 <30 μM)” value in the test on hIL-6 mRNA is on record as “Active”.
In the case of `Cc1noc(C)c1-c1ccc(=O)n(Cc2ccccc2Cl)c1` [Example 127, 1-(2-Chlorobenzyl)-5-(3,5-dimethylisoxazol-4-yl)pyridin-2(1H)-one], the “FRET activity (IC50 <30 μM) BRD4(1)” value in test [1] was “Active”. The “FRET activity (IC50 <30 μM) BRD2(2)” value in test [2] is “Active”. In the test with c-myc, the “c-myc activity (IC50 <30 μM)” value is “Active”. Also, in test [3], the “Cell Proliferation activity” value is on record as “Active”. For the same compound, in the test on hIL-6 mRNA, the “IL-6 activity (IC50 <30 μM)” value is listed as “Active”.
Regarding `Cc1noc(C)c1-c1ccc(=O)n([C@@H](C)c2ccccc2)c1` [Example 133, (S)-5-(3,5-Dimethylisoxazol-4-yl)-1-(1-phenylethyl)pyridin-2(1H)-one], the “FRET activity (IC50 <30 μM) BRD4(1)” value in test [1] is recorded as “Active”. The “FRET activity (IC50 <30 μM) BRD2(2)” value in test [2] is given as “Active”. Moreover, the “c-myc activity (IC50 <30 μM)” value in the test with c-myc is given as “Active”. Moreover, the “Cell Proliferation activity” value in test [3] is given as “Not Active”. Moreover, the “IL-6 activity (IC50 <30 μM)” value with hIL-6 mRNA was “Not Active”.
On to `Cc1noc(C)c1-c1ccc(=O)n(Cc2ccc(Cl)cc2Cl)c1` [Example 136, 1-(2,4-Dichlorobenzyl)-5-(3,5-dimethylisoxazol-4-yl)pyridin-2(1H)-one], for which the “FRET activity (IC50 <30 μM) BRD4(1)” value in test [1] is “Active”. Further, the “FRET activity (IC50 <30 μM) BRD2(2)” value in test [2] is listed as “Active”. Further, the “c-myc activity (IC50 <30 μM)” value in the test on c-myc is “Active”. Further, the “Cell Proliferation activity” value in test [3] is recorded as “Active”. The “IL-6 activity (IC50 <30 μM)” value in the test with hIL-6 mRNA was “Active”.
Consider `Cc1noc(C)c1-c1ccc(=O)n(Cc2ccc(C#N)cc2)c1` [Example 137, 4-((5-(3,5-Dimethylisoxazol-4-yl)-2-oxopyridin-1(2H)-yl)methyl)benzonitrile], for which the “FRET activity (IC50 <30 μM) BRD4(1)” value in test [1] is given as “Active”. In test [2], the “FRET activity (IC50 <30 μM) BRD2(2)” value is “Active”. In the test with c-myc, the “c-myc activity (IC50 <30 μM)” value is “Active”. Besides, in test [3], the “Cell Proliferation activity” value is “Active”. Further, in the test on hIL-6 mRNA, the “IL-6 activity (IC50 <30 μM)” value is on record as “Active”.
For `Cc1noc(C)c1-c1ccc(=O)n(Cc2cc(F)c(F)c(F)c2)c1` [Example 142, 5-(3,5-Dimethylisoxazol-4-yl)-1-(3,4,5-trifluorobenzyl)pyridin-2(1H)-one], the “FRET activity (IC50 <30 μM) BRD4(1)” value in test [1] is “Active”. The “FRET activity (IC50 <30 μM) BRD2(2)” value in test [2] was “Active”. The “c-myc activity (IC50 <30 μM)” value in the test with c-myc is on record as “Active”. Besides, in test [3], the “Cell Proliferation activity” value is given as “Active”. Also, in the test with hIL-6 mRNA, the “IL-6 activity (IC50 <30 μM)” value is “Active”.

The values are drawn from patent publication US9271978B2 (Zenith Epigenetics Corp., priority 2012, dated 2016).
